# Molecular target: T1, BRAF V600E (Homo sapiens, UniProt P15056, V600E)
# T1 construct: endogenous C-terminal HiBiT fusion tag on BRAF V600E allele; endogenous in cells; host or cells: A375 clone 1F10 (CRISPR-Cas9 knock-in of the HiBiT tag; parental A375 from ATCC)
# Test: BRAF HiBiT degradation assay, C-terminal HiBiT-tagged BRAF V600E A375 cells (clone 1F10), Nano-Glo HiBiT Lytic assay
# Type: cell-based
# Settings: A375 (BRAF V600E); for DC50: DC50 at 50%: fitted conc. at Y=50; for Dmax: A-375, percentage protein degraded at maximal compound effect relative to DMSO
# Source text: An A375 cell line expressing a homozygous V600E mutation was purchased from ATCC (Manassas, VA, USA). An A375 clone 1F10 cell line with an endogenous C-terminal HiBiT fusion tag on BRAF V600E allele was generated internally using CRISPR-Cas9 technology and cultured in DMEM, high glucose supplemented with 10% FBS and 1× GlutaMAX. A HCT-116 BRAF−/− cell line overexpressing the C-terminal HiBiT-tagged G466V, G469A, and D594G mutants were generated by lentiviral transduction, externally at Biosettia Inc (San Diego, CA, USA). The stably transfected cells were cultured in RPMI media supplemented with 10% FBS, 1× GlutaMAX, and 0.25 μg/ml puromycin. DMEM medium, RPMI 1640 medium, GlutaMAX, fetal bovine serum (FBS), and puromycin were purchased from Gibco (Grand Island, NY, USA). HCT-116 BRAF−/− cells were purchased from Horizon Discovery (Waterbeach, UK).
# The C-terminal HiBiT tagged BRAF A375 cells (monoclonal cell line, cell clone 1F10) were seeded at a density of 10,000 cells/well in 30 μL media (DMEM, high glucose supplemented with 10% FBS and 1× GlutaMAX) in white opaque 384-well plates (Corning #3570) from column 1 to column 23. The wildtype A375 cells were seeded in column 24 at the same cell density in 30 μL media. Cells were incubated at 37° C. with 5% CO2 for 24 h.
# Intermediate compound dilution series (5-point, ranging from 5 mM to 0.5 μM, 10-fold dilutions in DMSO) were prepared in a source plate (Beckman Coulter cat. no. 001-16128). Final compound dilution series (11-point, ranging from 1 μM to 0.01 nM, half-log dilutions in DMSO) were stamped into the assay plate (Corning #3570, column 1-11 and 12-22) using the Echo Acoustic Liquid Handler (Beckman Coulter). Each compound was plated in duplicate, and the total volume of compound DMSO solution was 60 nL/well (0.2% final DMSO concentration). DMSO was included in wells A23-L23 and A24-L24. The DMSO-treated HiBiT-tagged samples served as Negative Control (NC) and the DMSO-treated wildtype samples served as Background Control (BC) for the HiBiT assay.
# HiBiT signal was measured by a Nano-Glo HiBiT Lytic assay (Promega cat. no. N3050). HiBiT lytic detection reagent (Nano-Glo HiBiT Lytic Buffer with 1:50 Nano-Glo HiBiT Lytic Substrate and 1:100 LgBiT Protein, 40 μL) was added using Bravo. The mixture was incubated at room temperature, in the dark, and with gentle shaking for 10 min. Luminesce units (LU) were read on an EnVision plate reader 2105 (Perkin Elmer).
# Percent protein remaining and viability remaining per sample were calculated as follows: […]
# % Protein remaining values were plotted as a function of compound concentration. XC50 (DC50) values were determined by fitting curves using the following equation:
# For the HiBiT degradation assay, the key parameters reported include: • The dose of compound that produces 50% degradation (DC50 at 50%): • DC50 at 50%: the Fitted X value (Conc.) at Y=50 (response) • Observed Dmax (Obs. Dmax) is the percentage protein degraded at maximal compound effect relative to DMSO-treated control: […]
# T1 sequence (P15056 whole entry V600E, the tested form may be a part): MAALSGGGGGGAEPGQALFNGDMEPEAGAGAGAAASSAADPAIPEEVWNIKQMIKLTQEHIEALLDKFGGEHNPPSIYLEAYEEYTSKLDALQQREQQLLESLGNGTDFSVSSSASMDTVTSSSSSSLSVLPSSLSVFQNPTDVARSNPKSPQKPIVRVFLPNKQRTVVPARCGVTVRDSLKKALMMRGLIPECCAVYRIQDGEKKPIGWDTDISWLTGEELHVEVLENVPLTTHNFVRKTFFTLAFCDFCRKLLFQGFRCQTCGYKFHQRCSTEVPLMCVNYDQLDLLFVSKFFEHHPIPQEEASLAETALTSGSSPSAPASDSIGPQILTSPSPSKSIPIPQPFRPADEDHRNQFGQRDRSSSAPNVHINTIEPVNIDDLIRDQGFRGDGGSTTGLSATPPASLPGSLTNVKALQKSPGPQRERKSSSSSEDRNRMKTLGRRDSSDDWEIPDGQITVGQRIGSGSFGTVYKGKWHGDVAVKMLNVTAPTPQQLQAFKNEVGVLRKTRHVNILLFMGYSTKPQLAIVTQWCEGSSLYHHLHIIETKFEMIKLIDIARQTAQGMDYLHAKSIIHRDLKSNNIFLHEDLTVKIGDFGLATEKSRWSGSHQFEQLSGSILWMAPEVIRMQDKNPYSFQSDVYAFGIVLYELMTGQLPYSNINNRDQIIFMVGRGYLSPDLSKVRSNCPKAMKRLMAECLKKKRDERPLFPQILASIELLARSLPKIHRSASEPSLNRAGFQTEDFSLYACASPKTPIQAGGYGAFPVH
Structure (SMILES),DC50,Dmax
"CCCS(=O)(=O)Nc1cccc(-c2cn(-c3ccc(OC4CCN(C(=O)C5CCN(c6ccc(C7CCC(=O)NC7=O)cn6)CC5)CC4)cc3)nc2-c2ccncc2)c1F (racemic) [Compound 5, Rac-N-{3-[1-(4-{[1-(1-{5-[(3R)-2,6-dioxopiperidin-3-yl]pyridin-2-yl}piperidine-4-carbonyl)piperidin-4-yl]oxy}phenyl)-3-(pyridin-4-yl)-1H-pyrazol-4-yl]-2-fluorophenyl}propane-1-sulfonamide]",50 to 500 nM,30 to 70%
"CCCS(=O)(=O)Nc1cccc(-c2cn(C3CCN(C(=O)C4CCN(C(=O)C5CCN(c6ccc(C7CCC(=O)NC7=O)cc6)CC5)CC4)CC3)nc2-c2ccncc2)c1F (racemic) [Compound 9, Rac-N-[3-(1-{1-[1-(1-{4-[(3R)-2,6-dioxopiperidin-3-yl]phenyl}piperidine-4-carbonyl)piperidine-4-carbonyl]piperidin-4-yl}-3-(pyridin-4-yl)-1H-pyrazol-4-yl)-2-fluorophenyl]propane-1-sulfonamide]",50 to 500 nM,> 70%
"CCCS(=O)(=O)Nc1cccc(-c2cn(-c3ccc(C(=O)N4CCN(C(=O)CC5CCN(c6ccc(C7CCC(=O)NC7=O)cn6)CC5)CC4)cc3)nc2-c2ccncc2)c1F (racemic) [Compound 13, Rac-N-{3-[1-(4-{4-[2-(1-{5-[(3R)-2,6-dioxopiperidin-3-yl]pyridin-2-yl}piperidin-4-yl)acetyl]piperazine-1-carbonyl}phenyl)-3-(pyridin-4-yl)-1H-pyrazol-4-yl]-2-fluorophenyl}propane-1-sulfonamide]",10 to 50 nM,> 70%
"CCCS(=O)(=O)Nc1cccc(-c2cn(-c3ccc(C(=O)N4CCN(C(=O)C5CCN(c6ccc(C7CCC(=O)NC7=O)cc6)CC5)CC4)cc3)nc2-c2ccncc2)c1F (racemic) [Compound 14, Rac-N-[3-(1-{4-[4-(1-{4-[(3R)-2,6-dioxopiperidin-3-yl]phenyl}piperidine-4-carbonyl)piperazine-1-carbonyl]phenyl}-3-(pyridin-4-yl)-1H-pyrazol-4-yl)-2-fluorophenyl]propane-1-sulfonamide]",50 to 500 nM,30 to 70%
"CCCS(=O)(=O)Nc1cccc(-c2cn(-c3ccc(N4CCN(CC5(C)CCN(c6ccc(C7CCC(=O)NC7=O)cn6)CC5)CC4)cc3)nc2-c2ccncc2)c1F (racemic) [Compound 17, Rac-N-{3-[1-(4-{4-[(1-{5-[(3R)-2,6-dioxopiperidin-3-yl]pyridin-2-yl}-4-methylpiperidin-4-yl)methyl]piperazin-1-yl}phenyl)-3-(pyridin-4-yl)-1H-pyrazol-4-yl]-2-fluorophenyl}propane-1-sulfonamide]",50 to 500 nM,30 to 70%
"CCCS(=O)(=O)Nc1cccc(-c2cn(-c3ccc(N4CCN(CC5CCN(c6ccc(C7CCC(=O)NC7=O)cn6)CC5)CC4)cc3)nc2-c2ccncc2)c1F (racemic) [Compound 20, Rac-N-{3-[1-(4-{4-[(1-{5-[(3R)-2,6-dioxopiperidin-3-yl]pyridin-2-yl}piperidin-4-yl)methyl]piperazin-1-yl}phenyl)-3-(pyridin-4-yl)-1H-pyrazol-4-yl]-2-fluorophenyl}propane-1-sulfonamide]",10 to 50 nM,> 70%
"CCCS(=O)(=O)Nc1cccc(-c2cn(-c3ccc(N4CCN(C(=O)C5CCN(c6ccc(C7CCC(=O)NC7=O)cc6)CC5)CC4)cc3)nc2-c2ccncc2)c1F (racemic) [Compound 26, Rac-N-[3-(1-{4-[4-(1-{4-[(3R)-2,6-dioxopiperidin-3-yl]phenyl}piperidine-4-carbonyl)piperazin-1-yl]phenyl}-3-(pyridin-4-yl)-1H-pyrazol-4-yl)-2-fluorophenyl]propane-1-sulfonamide]",50 to 500 nM,30 to 70%
